Measured values published in patent publication US20190209641A1, “METHODS FOR PREVENTING OR TREATING METABOLIC SYNDROME” (Cornell University, priority 2009, published 2019).
Values joined by “and” are separate entries in the source; they are usually repeats but may differ in a detail not shown here. Equal entries are not always repeated. Non-standard residues stand in square brackets, D forms with d. No end group written: not given here.

Columns and labels:
[1] = test system: STZ-induced diabetic Sprague-Dawley rats; experiment: STZ diabetes model in male Sprague-Dawley rats, Example 4; format: in vivo, rat; conditions: 10 mg/kg s.c. q.d. 5 days a week, after peptide treatment for 2 weeks or 4 weeks, vs. STZ/Saline group
Experimental: The objective of this study was to explore the protective effect of SS-31 or SS-20 against Streptozotocin (STZ) induced diabetic complications and metabolic syndrome in male Sprague-Dawley rats.
Rat models of type 1 diabetes were established by administration of high-dose STZ (30 mg/kg). Rats of the same batch fed with regular chow are used as normal control. The study groups included: Group A: STZ+SS-31 10 mg/kg s.c. q.d. (M.-F.), n=11; Group B: STZ+SS-20 10 mg/kg s.c. q.d. (M.-F.), n=11; Group C: STZ+vehicle s.c. q.d. (M.-F.), n=10; Group D: NRC +vehicle s.c. q.d. (M.-F.), n=10.
The compounds were dissolved in saline. The treatment was given once a day (5 days a week) with injection site to be alternated. The concentration of SS-31 and SS-20 dosed at 10mg/kg is 5mg/ml. The treatment volume (0.2 ml/100 g for s.c.) for each test animal was adjusted according to its body weight taken on the beginning of each week. STZ was dissolved in 0.1 M citrate buffer (pH4.5) to concentration of 20 mg/mL. STZ was injected intraperitoneally.

DIO C57BL/6 mice = experiment: Diet-induced obesity (DIO) in C57BL/6 mice, Example 3; format: in vivo, mouse; conditions: for Glucose Tolerance (IPGTT), Week 5: DIO vehicle 1719.7 ± 56.8, chow vehicle 1213.6 ± 54.1; for glucose tolerance in the obese mouse model (in words): IPGTT, 1 g/kg D-glucose i.p.; for abdominal fat index / subcutaneous fat index: after 14 weeks of treatment
Experimental: To analyze the pharmacodynamic effects of SS-31 and SS-20 against diet-induced obesity (D10) in C57BL/6 mice, the test subjects were fed either a normal diet or a high-fat diet having the composition shown in Table 9.
After several days of acclimation, animals were weighted and randomly assigned to the following treatment groups.
Starting from the first day of treatment, animals in Groups B to I were switched to HFD. During the entire treatment period, the following activities were performed on specific days.
Dose Preparation & Administration. The treatment was given once a day (5 days a week) with injection site alternated. The concentration of SS-31 and SS-20 dosed at 3 mg/kg was 0.6 mg/ml and that of 10 mg/kg was 2 mg/ml. The treatment volume (0.05 mUl0 g for s.c. and 0.2 ml/10 g for p.o.) for each test animal was adjusted according to its body weight taken on the beginning of each week.
Blood Sample Collection. Blood samples were collected by tail snip according to the Medicilon/MPI Preclinical Research (Shanghai) LLC SOP on Blood Collection Techniques. […] Collected blood samples were set at room temperature for 1 hour to allow clotting before being centrifuged at 2,000×g for 10 min. The supernatant were collected and re-centrifuged at 2,000×g for another 10 min. to generate the serum. Part of the serum samples were used for total cholesterol (TC) analysis immediately. The rest were stored at −20° C. until being used in insulin analysis.
Serum Insulin, Triglyceride (TG) & Total Cholesterol (TC). Serum insulin levels were measured using Rat/Mouse Insulin ELISA Kit from Millipore Corporation (Catalog # EZRMI-13K, St. Charles, Mo., USA). Serum TG levels were measured by automatic biochemical analyzer. FIG. 5A is a chart illustrating the effects of peptide treatment on triglycerides in a murine model of diet-induced obesity after 14 weeks of treatment. FIG. 5B is a chart illustrating the effects of peptide treatment on total cholesterol in a murine model of diet-induced obesity after 14 weeks of treatment. FIG. 5C is a chart illustrating the effects of peptide treatment on HDL cholesterol in a murine model of diet-induced obesity after 14 weeks of treatment.
IPGTT. IPGTT was performed according to the Medicilon-MPI Preclinical Research (Shanghai) LLC SOP on Intraperitoneal (IP) Glucose Tolerance Test with slight modifications. Mice were fast overnight before the baseline glucose levels assessed in the next morning. After that, an IP injection of 1 g/kg D-glucose was given to each animal and the blood glucose levels were then measured on 15, 30, 60 and 120 minutes post the IP injection.

HFD/STZ SD rats = experiment: Rat model of metabolic syndrome (HFD + low-dose STZ), Example 1; format: in vivo; conditions: for body weight increase over the 10-week treatment period: 10 mg/kg s.c. q.d. 5 days a week, by the end of 10th week, HFD/STZ control 3.6%, NRC 23.3%; for effect on blood glucose: 10 mg/kg s.c., week 4 post peptide treatment, vs. HFD/STZ vehicle rats
Experimental: The effects of aromatic-cationic peptides in treating a subject suffering from metabolic syndrome were investigated in a Sprague-Dawley rat model over […]. The example describes the results of such experiments.
In vivo models. A rat model of metabolic syndrome was established by combination of 6-week HFD and low-dose STZ (40 mg/kg) injection in SD rats. Rats of the same batch fed with normal chow (NRC) were used as a control.
Study groups. Group A: NRC+PBS s.c. q.d. (Mon-Fri)*, n=5; Group B: HFD +STZ+PBS s.c. q.d. (Mon-Fri), n=8; Group C:HFD+STZ+SS-31 10 mg/kg s.c. q.d. (Mon-Fri), n=8; Group D: HFD+STZ+SS-20 10 mg/kg s.c. q.d. (Mon-Fri), n=8.
Preparation and administration of test compounds. SS-31 or SS-20 was dissolved in 0.01 M PBS (pH 7.0). The 10-week treatment was given once a day (5 days a week) with s.c. injection site alternated. The concentration of SS-31 and SS-20 was 5.0 mg/mL. The injection volume (0.2 mL/100 g) for each test animal was adjusted according to body weight taken on the beginning of each week. STZ was dissolved in 0.1 M citrate buffer (pH 4.5) to concentration of 20 mg/mL. STZ is injected intraperitoneally.
Blood glucose. Blood glucose was tested by ACCU-CHEK® Advantage™ blood glucose meter and test strips from Roche diagnostics GmbH (Mannheim, Germany).
Blood sample handling. Blood samples were collected by tail snip. […] Collected blood samples were set at room temperature for 30 min to allow clotting before being centrifuged at 1,200×g for 10 min. The supernatant were collected and re-centrifuged at 1,200×g for another 5 min to generate the serum. Serum samples were aliquotted and stored at −20° C. until being used in analysis.
Statistics: Statistic analysis oft-test and one-way ANOVA was performed by SPSS (Statistical Package for Social Science) analysis software.

HFD/STZ rats = experiment: HFD/STZ rat model of metabolic syndrome, 10-week peptide treatment, Example 2; format: in vivo; conditions: for TG level before peptide treatment: baseline; for change in blood glucose during 10-week peptide treatment / change in body weight during 10-week peptide treatment: SS-31 10, 3, 1 mg/kg or SS-20 10, 3 mg/kg s.c. once daily 5 days a week
Experimental: This study was initiated to investigate the effects of SS-31 and SS-20 in a model of metabolic syndrome over a 10 week period. Rats were fed with a high-fat diet for 6 weeks and then administered a single dose of STZ (30 mg/kg). The rats were maintained on a HFD until 14 weeks after STZ administration. Control rats fed normal rat chow (NRC) for 6 weeks were then administered citrate buffer without STZ. After 5 months, diabetic rats were treated with SS-31 (10 mg/kg, 3 mg/kg, 1 mg/kg s.c. once daily), SS-20 (10 mg/kg, 3 mg/kg s.c. once daily) or vehicle (saline) 5 days a week for 10 weeks. The study groups were as follows:
Group A: HFD/STZ+SS-31 10 mg/kg s.c. q.d. (Mon-Fri.), n=12;
Group B: HFD/STZ+SS-31 3 mg/kg s.c. q.d. (Mon-Fri.), n=12;
Group C: HFD/STZ+SS-31 1 mg/kg s.c. q.d. (Mon-Fri.), n=10;
Group D: HFD/STZ+SS-20 10 mg/kg s.c. q.d. (Mon-Fri.), n=10;
Group E: HFD/STZ+SS-20 3 mg/kg s.c. q.d. (Mon-Fri.), n=10;
Group F: HFD/STZ+vehicle s.c. q.d. (Mon-Fri.), n=10;
Group G: NRC +vehicle s.c. q.d. (Mon-Fri.), n=10.
HFD feeding for 6 weeks produced obvious body weight gain (452.9±3.8g in HFD group vs. 425.5±7.1 g, P<0.01) and STZ administration increased blood glucose (26.5±0.5 mmol/L in HFD/STZ rats vs. 9.8±0.5 mmol/L in NRC rats, P<0.001) and hyperlipidemia (P<0.01), indicating a metabolic syndrome-like disorder in these test subjects.

[2] = 10 mg/kg s.c. q.d. 5 days a week

D-Arg-2′,6′-Dmt-Lys-Phe-NH2 [SS-31]
TG level [1]: increased less than STZ/Saline group
Glucose Tolerance (IPGTT), Week 5 (DIO C57BL/6 mice; 3 mg/kg s.c.): 1460.6 ± 64.1
Glucose Tolerance (IPGTT), Week 5 (DIO C57BL/6 mice; 10 mg/kg s.c.): 1584.3 ± 78.3
glucose tolerance in the obese mouse model (in words) (DIO C57BL/6 mice): significantly improve glucose tolerance
abdominal fat index (DIO C57BL/6 mice): capable of reducing
subcutaneous fat index (DIO C57BL/6 mice): capable of reducing
body weight increase over the 10-week treatment period (HFD/STZ SD rats): 16.3%
effect on blood glucose (HFD/STZ SD rats): down-regulation effect on blood glucose
TG level before peptide treatment (HFD/STZ rats; 3 mg/kg group): 4.17 ± 0.88 mM
TG level after 10 weeks' peptide treatment (HFD/STZ rats; 3 mg/kg s.c. q.d. 5 days a week): 2.46 ± 0.52 mM
TG level before peptide treatment (HFD/STZ rats; 10 mg/kg group): 3.77 ± 0.38 mM
TG level after 10 weeks' peptide treatment (HFD/STZ rats; [2]): 1.75 ± 0.33 mM
change in blood glucose during 10-week peptide treatment (HFD/STZ rats): no obvious changes
change in body weight during 10-week peptide treatment (HFD/STZ rats): no obvious changes

CN(CCOc1ccc(CC2SC(=O)NC2=O)cc1)c1ccccn1 (centres unmarked) [Rosi, Rosiglitazone, reference compound]
Glucose Tolerance (IPGTT), Week 5 (DIO C57BL/6 mice; 2 mg/kg p.o.): 1487.5 ± 44.2

F[dR]FK-NH2 [SS-20]
TG level [1]: increased less than STZ/Saline group
Glucose Tolerance (IPGTT), Week 5 (DIO C57BL/6 mice; 3 mg/kg s.c.): 1534.1 ± 53.3
Glucose Tolerance (IPGTT), Week 5 (DIO C57BL/6 mice; 10 mg/kg s.c.): 1494.5 ± 54.4
glucose tolerance in the obese mouse model (in words) (DIO C57BL/6 mice): significantly improve glucose tolerance
abdominal fat index (DIO C57BL/6 mice): capable of reducing
subcutaneous fat index (DIO C57BL/6 mice): capable of reducing
body weight increase over the 10-week treatment period (HFD/STZ SD rats): 9.0%
effect on blood glucose (HFD/STZ SD rats): down-regulation effect on blood glucose
TG level before peptide treatment (HFD/STZ rats; 3 mg/kg group, 3 mg/kg): 4.66 ± 1.40 mM and 3.90 ± 0.65 mM
TG level after 10 weeks' peptide treatment (HFD/STZ rats; 3 mg/kg s.c. q.d. 5 days a week, 3 mg/kg): 2.43 ± 0.47 mM and 3.70 ± 1.16 mM
TG level before peptide treatment (HFD/STZ rats; 10 mg/kg group): 4.17 ± 1.02 mM
TG level after 10 weeks' peptide treatment (HFD/STZ rats; [2]): 1.97 ± 0.46 mM
change in blood glucose during 10-week peptide treatment (HFD/STZ rats): no obvious changes
change in body weight during 10-week peptide treatment (HFD/STZ rats): no obvious changes
